# Results from US11845990B2, “Prediction of sleep parameter and response to sleep-inducing compound based on PER3 VNTR genotype” (Vanda Pharmaceuticals Inc., priority 2007, dated 2023).
# Tests used:
# [1] = tested on: healthy male and female subjects with induced transient insomnia; test: Induced transient insomnia clinical study (first night effect plus 5-hour phase advance), polysomnography, by PER3 VNTR genotype; type: in vivo, human; parameters: greater sleep efficiency over subjects on placebo (full night) / lower sleep efficiency than subjects on placebo (full night) / sleep efficiency higher than in placebo, first third of the night / sleep efficiency higher than in placebo, second third of the night / sleep efficiency lower than in placebo, first third of the night / sleep efficiency lower than in placebo, second third of the night: concentration or dose not given beside the values
# From the text: The effect of this polymorphism was investigated with respect to various sleep parameters (latency to persistent sleep, wake after sleep onset, sleep efficiency), which evaluated objectively by polysomnography in healthy subjects treated with (1R-trans)-N-[[2-(2,3-dihydro-4-benzofuranyl)cyclopropyl]methyl]propanamide, or treated with a placebo, in a clinical protocol that models transient insomnia.
# Transient insomnia can be induced in a laboratory setting as a result of a “first night effect” in which sleep onset and sleep maintenance are disrupted in normal sleeping adults by sleeping in an unfamiliar surrounding. This model of transient insomnia has been validated in several studies of normal sleeping adults. Insomnia can also be precipitated by other factors such as traveling across multiple time zones (jet lag). This condition can be reproduced in a sleep laboratory by forcing an earlier bedtime (phase advance). The study reported here used both, the first night effect and a 5-hour phase advance component, to increase the likelihood that transient insomnia will be induced. A multi-center, randomized, double-blind, placebo-controlled, parallel study was conducted to investigate the efficacy and safety of a single oral dose of (1R-trans)-N-[[2-(2,3-dihydro-4-benzofuranyl)cyclopropyl]methyl]propanamide (20 mg, 50 mg, and 100 mg) and matching placebo in healthy male and female subjects with induced transient insomnia. […] Latency to Persistent Sleep (LPS), Wake After Sleep Onset (WASO) and sleep efficiency (SE) were evaluated objectively by use of polysomnography.
# More than 70% of subjects who enrolled in the clinical trial consented to the optional PG study. From those, 288 were genotyped for the PER3 VNTR polymorphism.
# healthy volunteers = test: Previous tolerability studies in healthy volunteers; type: in vivo
# [2] = Solubility and pH of saturated solution; type: physicochemical
compound,measurement,setting,value
"CCC(=O)NC[C@@H]1C[C@H]1c1cccc2c1CCO2 [(1R-trans)-N-[[2-(2,3-dihydro-4-benzofuranyl)cyclopropyl]methyl]propanamide]",shorter LPS period than with placebo,[1]; PER3 4/4 and 4/5 genotypes,30 min
same,shorter LPS period than with placebo (percent),[1]; PER3 4/4 and 4/5 genotypes,56%
same,smaller WASO than with placebo,[1]; PER3 4/4 and 4/5 genotypes,21 min
same,smaller WASO than with placebo (percent),[1]; PER3 4/4 and 4/5 genotypes,16%
same,"sleep efficiency higher than in placebo, first third of the night","[1]; PER3 4/4 and 4/5 genotypes, first third of night",29%
same,greater sleep efficiency over subjects on placebo (full night),"[1]; PER3 4/4 and 4/5 genotypes, full night",12%
same,"sleep efficiency higher than in placebo, second third of the night","[1]; PER3 4/4 and 4/5 genotypes, second third of night",22.8%
same,longer WASO than with placebo,[1]; PER3 5/5 genotype,32 min
same,longer WASO than with placebo (percent),[1]; PER3 5/5 genotype,32.7%
same,shorter LPS than with placebo,[1]; PER3 5/5 genotype,8 min
same,shorter LPS than with placebo (percent),[1]; PER3 5/5 genotype,27%
same,"sleep efficiency lower than in placebo, first third of the night","[1]; PER3 5/5 genotype, first third of night",7.2%
same,lower sleep efficiency than subjects on placebo (full night),"[1]; PER3 5/5 genotype, full night",9.5%
same,"sleep efficiency lower than in placebo, second third of the night","[1]; PER3 5/5 genotype, second third of night",3.4%
same,"efficacy in improving LPS, WASO, and Sleep Efficiency","[1]; single oral dose 20, 50 or 100 mg, induced transient insomnia, vs placebo",efficacious
same,sleep efficiency improvement in the third part of the night,"[1]; third third of night, vs placebo",no improvement
same,"tolerability, multiple doses",healthy volunteers; multiple doses (up to 28 days) up to 150 mg,well-tolerated
same,"tolerability, single doses",healthy volunteers; single doses up to 300 mg,well-tolerated
same,solubility in organic solvents,"[2]; 95% ethanol, methanol, acetonitrile, ethyl acetate, isopropanol, polyethylene glycols (PEG-300 and PEG-400)",very soluble or freely soluble
same,native pH of a saturated solution in water,[2]; saturated solution in water,8.5
same,effect of pH on aqueous solubility,[2]; water,practically unaffected by pH
same,solubility in water,[2]; water,only slightly soluble
